Assay results as given in paper PMC11597050, “Virtual Screening, Molecular Dynamics, and Mechanism Study of Homeodomain-Interacting Protein Kinase 2 Inhibitor in Renal Fibroblasts” (Pharmaceuticals, 2024).

Tests used:
Type in all cases: biochemical
HIPK3 = HIPK3 (Homo sapiens, UniProt Q9H422); assay: kinase inhibition assay, percent inhibition at […]
HIPK2 [1] = biological target: T1, HIPK2 (Homo sapiens, UniProt Q9H2X6); assay: ADP-Glo kinase assay (positive control drug); conditions: read-out: IC50 ± SEM (μM) / HIPK2
T1 sequence (Q9H2X6 whole entry): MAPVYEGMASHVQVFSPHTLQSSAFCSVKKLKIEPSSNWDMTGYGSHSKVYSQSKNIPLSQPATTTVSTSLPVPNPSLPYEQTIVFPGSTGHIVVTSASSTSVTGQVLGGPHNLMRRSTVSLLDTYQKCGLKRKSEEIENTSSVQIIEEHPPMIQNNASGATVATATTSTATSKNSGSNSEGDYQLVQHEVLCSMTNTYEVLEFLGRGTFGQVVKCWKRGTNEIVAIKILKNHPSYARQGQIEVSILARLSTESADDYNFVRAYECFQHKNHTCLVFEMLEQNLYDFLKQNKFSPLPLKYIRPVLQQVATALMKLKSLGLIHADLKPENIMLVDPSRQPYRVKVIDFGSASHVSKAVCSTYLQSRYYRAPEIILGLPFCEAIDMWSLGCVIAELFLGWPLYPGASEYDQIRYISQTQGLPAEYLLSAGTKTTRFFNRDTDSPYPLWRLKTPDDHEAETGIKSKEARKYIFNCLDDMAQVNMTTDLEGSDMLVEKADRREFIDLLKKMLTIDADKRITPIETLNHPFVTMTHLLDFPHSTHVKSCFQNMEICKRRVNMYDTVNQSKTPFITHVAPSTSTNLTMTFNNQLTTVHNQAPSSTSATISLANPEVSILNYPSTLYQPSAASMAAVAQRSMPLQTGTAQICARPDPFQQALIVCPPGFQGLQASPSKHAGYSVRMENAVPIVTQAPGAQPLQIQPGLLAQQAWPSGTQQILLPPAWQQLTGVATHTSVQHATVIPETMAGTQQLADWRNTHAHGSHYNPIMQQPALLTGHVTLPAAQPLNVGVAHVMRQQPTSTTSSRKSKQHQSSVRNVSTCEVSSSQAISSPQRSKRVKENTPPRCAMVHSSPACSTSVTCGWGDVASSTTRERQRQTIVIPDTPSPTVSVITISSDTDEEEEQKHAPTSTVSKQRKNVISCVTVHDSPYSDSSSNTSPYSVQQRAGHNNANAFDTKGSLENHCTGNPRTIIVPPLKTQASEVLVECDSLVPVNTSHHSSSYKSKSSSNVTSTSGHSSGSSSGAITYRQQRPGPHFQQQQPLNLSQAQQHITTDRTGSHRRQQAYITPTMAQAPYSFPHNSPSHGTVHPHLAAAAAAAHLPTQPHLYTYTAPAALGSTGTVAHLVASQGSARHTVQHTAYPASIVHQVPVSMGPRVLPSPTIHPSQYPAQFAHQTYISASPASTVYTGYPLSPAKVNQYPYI

HIPK2 [2] = biological target: T1, HIPK2; assay: ADP-Glo kinase assay (MBP substrate); conditions: read-out: IC50 ± SEM (μM) / HIPK2

HIPK3, sequence (Q9H422 whole entry): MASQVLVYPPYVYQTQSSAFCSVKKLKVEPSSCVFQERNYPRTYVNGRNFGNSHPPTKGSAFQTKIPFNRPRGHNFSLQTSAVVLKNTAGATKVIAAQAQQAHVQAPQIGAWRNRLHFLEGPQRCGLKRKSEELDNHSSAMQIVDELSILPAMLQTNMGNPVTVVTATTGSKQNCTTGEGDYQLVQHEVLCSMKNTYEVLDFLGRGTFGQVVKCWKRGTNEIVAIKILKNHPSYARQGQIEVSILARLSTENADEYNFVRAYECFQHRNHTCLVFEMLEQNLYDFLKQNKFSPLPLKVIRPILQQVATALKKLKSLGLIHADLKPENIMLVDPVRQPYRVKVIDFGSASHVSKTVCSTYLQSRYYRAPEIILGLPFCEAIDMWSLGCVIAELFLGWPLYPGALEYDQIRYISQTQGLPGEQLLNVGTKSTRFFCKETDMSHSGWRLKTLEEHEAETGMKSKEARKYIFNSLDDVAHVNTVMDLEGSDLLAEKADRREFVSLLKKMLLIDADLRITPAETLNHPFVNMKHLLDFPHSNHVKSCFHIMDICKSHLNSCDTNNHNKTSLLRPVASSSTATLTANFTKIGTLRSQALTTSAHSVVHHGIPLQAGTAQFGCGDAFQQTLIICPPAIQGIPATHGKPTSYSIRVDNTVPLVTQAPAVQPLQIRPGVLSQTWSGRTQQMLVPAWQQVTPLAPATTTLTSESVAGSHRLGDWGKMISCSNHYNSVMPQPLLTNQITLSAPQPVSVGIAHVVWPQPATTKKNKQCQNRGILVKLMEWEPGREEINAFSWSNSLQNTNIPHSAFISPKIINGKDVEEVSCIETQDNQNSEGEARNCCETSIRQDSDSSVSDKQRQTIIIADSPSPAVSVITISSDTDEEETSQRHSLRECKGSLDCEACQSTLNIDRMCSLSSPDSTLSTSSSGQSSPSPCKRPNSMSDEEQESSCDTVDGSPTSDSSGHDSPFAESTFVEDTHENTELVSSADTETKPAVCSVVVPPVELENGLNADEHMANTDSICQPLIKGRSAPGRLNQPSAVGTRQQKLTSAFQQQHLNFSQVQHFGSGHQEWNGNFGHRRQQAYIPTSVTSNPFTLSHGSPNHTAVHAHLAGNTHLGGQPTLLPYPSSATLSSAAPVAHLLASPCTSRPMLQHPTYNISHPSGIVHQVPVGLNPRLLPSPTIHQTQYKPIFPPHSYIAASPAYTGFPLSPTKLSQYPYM

| SMILES | inhibition at 10 µM (HIPK3) | IC50 (HIPK2 [1]) | IC50 (HIPK2 [2]) |
| --- | --- | --- | --- |
| CCN1CCN(Cc2ccc(Nc3ncc(F)c(-c4cc(F)c5nc(C)n(C(C)C)c5c4)n3)nc2)CC1 [Abemaciclib] | > 90% | 0.45 ± 0.12 µM |  |
| CCCNc1ccc2ncc(-c3ccc4[nH]ncc4c3)n2n1 [T9521, 3-(1H-indazol-5-yl)-N-propylimidazo[1,2-b]pyridazin-6-amine] |  |  | 0.97 ± 0.04 µM |
| O=C1Nc2ccc3ncsc3c2/C1=C/c1c[nH]cn1 [T16550] |  |  | 3.58 ± 0.06 µM |
